Data set [1] is described as follows: pH value of aqueous solution. The class given is physicochemical. Conditions: for pH value of a 0.1% aqueous solution: 0.1% solution.
Data set [2] deals with serotonin spasm (bronchospasm). Briefly: Test a: inhibition of serotonin-induced bronchospasm (Konzett and Rossler). Conditions: Cavia porcellus, guinea pigs. The class given is in vivo. Here is the method: (§1) For determination of the serotonin-antagonistic activity the following pharmacological tests were used: Test a: (Test according to Konzett and Rossler (Arch. exp. Path. Pharmak. 195 (1940) 71). Domestic albino guinea pigs were anaesthetised with 1.25 g/kg of urethane intraperitoneally (i.p.). Bronchial resistance was recorded in the open thorax by a recorder ("bronchotransducer") manufactured by the firm Ugo Basile (Milan); respiratory frequency was kept constant by artificial respiration at a frequency of 58 strokes/minute, the inflation pressure was 9 cm H2 O column. To induce bronchospasms, 5 to […] of serotonin (as serotonin-creatinine sulphate) were injected into one of the jugular veins every 15 minutes in a volume of 0.1 ml/kg body weight. The test substances were administered in a volume of 1 ml/kg either intravenously within 30 seconds, 2 minutes before generation of the serotonin spasm or intraduodenally or orally by oesphageal tube 15 minutes before the spasm. […] The results are given in Table I. Test b: (Serotonin antagonism in the isolated uterus of rats according to Robert A. Turner: Screening Methods in Pharmacology, Academic Press 1965 (New York and London)) Female Sprague-Dawley rats with a weight of 180 to 240 g were given intraperitoneally 2 mg of Oestromon (Merck, Darmstadt) 24 hours before extraction of the uterus in order to induce oestrus. The organ bath was kept at 22° C. and contained a Tyrode solution having a specific composition. The test substance was added to the bath in aqueous solution with a total volume of 0.1 ml. The serotonin concentration administered was 10^-8 g/ml bath. The ED50 value corresponded to the dose by which a serotonin spasm is inhibited by 50%. Test c: (5-Hydroxy-L-tryptophan antagonism in mice). A single administration of 5-hydroxy-L-tryptophan causes in mice a strong increase in defecation due to the increased biosynthesis of serotonin from exogenically supplied amino acids. This defecation effect can be reduced by serotonin antagonists. The test substances were administered orally 45 minutes before administration of the tryptophan. The tryptophan dose was 40 mg/kg i.p.

A short description of a further data set: Acute toxicity, rats. Conditions: rat, in vivo, iv, mortality within 7 days. An excerpt: (§2) Table III sets out for some compounds, the toxicity determined in mice and rats after intraperitoneal and intravenous administration over the mortality occurring within 7 days as LD50 or LD50 range.
For data set [3], the system named is thrombocyte aggregation. Briefly: Thrombocyte aggregation inhibiting activity (ADP-induced, platelet-rich plasma). It counts as cell-based, beagle dogs. Here is the method: Thrombocyte aggregation was induced experimentally in platelet-rich plasm (PRP) of beagle dogs by in vitro administration of adenosine diphosphate (ADP) in a final concentration of 2.5×10^-6 and was measured by means of a universal aggregometer (manufactured by B. Braun/Melsungen). An Eppendorf Photometer recorded the change in the optical density of the plasma.
The following parameters were determined:
1. The angle, α, between the tangent at the starting point of the curve and the horizontal axis,
2. The time, Tr, from the start of rotation (aggregation) until complete disaggregation,
3. The maximum amplitude (Ma) of the aggregation curve as the difference between starting transmission and maximum transmission.

The next data set is described as follows: Acute toxicity, mice. Conditions: mouse, in vivo, mortality within 7 days.
From the text: as §2

Data set [4] concerns serotonin spasm in the isolated uterus of rats. Briefly: Test b: serotonin antagonism in the isolated uterus of rats. The class given is cell-based, rats (Sprague-Dawley). Conditions: isolated rat uterus; serotonin 10^-8 g/ml bath; 22° C.; read-out: ED50 (the source's name). As to the method: as §1
A further data set deals with 5-Hydroxy-L-tryptophan. Briefly: Test c: 5-Hydroxy-L-tryptophan antagonism in mice (defecation). The class given is in vivo. Conditions: 5-hydroxy-L-tryptophan 40 mg/kg i.p. As to the method:
as §1
Evaluation was carried out 1 hour after administration of the preparation by measurement of the quantity of faeces produced. A reduction in this quantity by not more than 25% of the control is indicated, according to the result, by 0 or (+), from 25 to 50% by +, from 50 to 75% by ++ and over 75% +++ (see Table I).

In a further data set the test system is serotonin. Conditions: background statement; cited from earlier work.
In a further data set the test system is rats. Conditions: i.v., Speigt and Avery, Drugs 3, 159-203 (1972), 10080 min; cited from earlier work.
Another data set relates to mice. Conditions: i.v., Speigt and Avery, Drugs 3, 159-203 (1972), 10080 min; cited from earlier work.
In data set [5] the test system is thrombocyte aggregation. Conditions: background statement; cited from earlier work.
Where [6] appears, read: 0.25 h, i.d. (intraduodenal), 15 minutes after administration.
[7] abbreviates: iv, 2 min, i.v., 2 minutes after injection.
Setting [8] is: Canis lupus familiaris, final concentration 10^-4 g/ml, read-out: Change of Ma in %.
[9] abbreviates: po, 0.25 h, p.o., 15 minutes after administration.
Setting [10] is: final concentration 3 × 10^-5 g/ml.

Values after ≈ are worked out from the molar mass of the structure shown. Counter-ions that a name gives are not always drawn.

We go through twelve compounds from patent US4216216A, “Aromatic piperazinyl substituted dihydrouracils” (Hoechst Aktiengesellschaft, priority 1977, dated 1980).

By ED50 is commonly meant the dose at which the effect has come halfway, by size or by number of responders. Higher therefore signals a need for a large dose. In general, LD50 refers to the dose at which mortality reaches 50%.

As to `CN1C(=O)N(CCCN2CCN(c3ccccc3)CC2)C(=O)CC1(C)C` [compound 26], the “pH value of a 0.1% aqueous solution” value in [1] is reported as “around 3.0”.
For `CC1NC(=O)N(CCCN2CCN(c3ccccc3)CC2)C(=O)C1C` (stereo not shown) [compound 17], the ED50 in data set [2] (setting [6]) was 0.01 to 0.03 mg/kg; in data set [2] (setting [7]), 0.001 to 0.003 mg/kg. Further, the LD50 at 168 h is 25 to 40 mg/kg in the data set “Acute toxicity, rats” and 54 mg/kg in “Acute toxicity, mice” (iv). In the data set with thrombocyte aggregation [3] (setting [8]), the inhibition at 100 µg/mL turned out to be 18%. For the same compound, in the data set on thrombocyte aggregation [3] (final concentration 10^-4 g/ml), the “Ma, maximum amplitude of the aggregation curve” value (“Ma, maximum amplitude” for short) stood at 344. Further, the “Tr, time from start of rotation (aggregation) until complete disaggregation” value (“Tr, time from start of rotation” below) in the data set on thrombocyte aggregation [3] (final concentration 10^-4 g/ml) was found to be 2.3 min. In addition, the “angle α between the tangent at the starting point of the curve and the horizontal axis” value (“angle α between the tangent” for short) in the data set with thrombocyte aggregation [3] (final concentration 10^-4 g/ml) came to 85.9. Moreover, the IC50 in data set [4] was 1 to 10 ng/mL (≈ 2.9 to 29 nM). Moreover, the results for the “Strength of activity (reduction in quantity of faeces)” value with 5-Hydroxy-L-tryptophan (10 mg/kg p.o.) and in the data set with 5-Hydroxy-L-tryptophan (20 mg/kg p.o.) were “+ (from 25 to 50%)” and “++ (from 50 to 75%)”, respectively.
In the case of `CC1(C)CC(=O)N(CCN2CCN(c3ccccc3)CC2)C(=S)N1` [dihydrochloride hydrate], the “pH value of a 10% aqueous solution” value in data set [1] (10% aqueous solution) is given as “around 1.8”.
Regarding `CC1(C)CC(=O)N(CCN2CCN(c3ccccc3)CC2)C(=S)N1` [compound 18], the 50% effective dose (ED50) in data set [2] (setting [6]) was approximately 0.03 mg/kg; in data set [2] (setting [7]), 0.001 to 0.003 mg/kg. The LD50 at 168 h in the data set “Acute toxicity, rats” is 66 mg/kg; in the data set “Acute toxicity, mice” (iv), 100 to 150 mg/kg. In addition, in the data set on thrombocyte aggregation [3] (setting [8]), the inhibition at 100 µg/mL worked out at 19%. Also, the “Ma, maximum amplitude” value with thrombocyte aggregation [3] (final concentration 10^-4 g/ml) is given as 328. In the data set with thrombocyte aggregation [3] (final concentration 10^-4 g/ml), the “Tr, time from start of rotation” value turned out to be 3.0 min. In the data set on thrombocyte aggregation [3] (final concentration 10^-4 g/ml), the “angle α between the tangent” value was 85.8. In addition, the “pH value of a 0.1% aqueous solution” value in data set [1] is reported as “about 4.3”. In addition, the IC50 in [4] was in the range of 0.1 to 1 ng/mL (≈ 0.289 to 2.89 nM). Besides, the “Strength of activity (reduction in quantity of faeces)” value with 5-Hydroxy-L-tryptophan (10 mg/kg p.o.) and in the data set on 5-Hydroxy-L-tryptophan (20 mg/kg p.o.) was “++ (from 50 to 75%)” each time.
Take `CC1(C)CC(=O)N(CCCN2CCN(c3ccc(F)cc3)CC2)C(=O)N1` [compound 11]: the ED50 in data set [2] (setting [7]) fell in the range of 0.01 to 0.03 mg/kg. For the same compound, the LD50 at 168 h in “Acute toxicity, mice” (ip) was in the range of 100 to 300 mg/kg.
With `CN(C)CCCOC1(Cc2ccccc2)CCCCCC1` [Fludilate, reference compound], in the data set with thrombocyte aggregation [3] (final concentration 10^-4 g/ml), the “Change of Ma in %” value is reported as -34%; the “Ma, maximum amplitude” value came out at 324; the “Tr, time from start of rotation” value came to 2.6 min; the “angle α between the tangent” value stood at 85.2.
In the case of `CC1(C)CC(=O)N(CCCN2CCN(c3ccccc3)CC2)C(=O)N1` [compound 9], the ED50 in data set [2] (setting [6]) was 0.01 to 0.03 mg/kg; in data set [2] (setting [7]) it was 0.003 to 0.01 mg/kg; in data set [2] (setting [9]) it was 0.1 to 0.3 mg/kg. Also, the LD50 at 168 h in the data set “Acute toxicity, rats” (for the base) is 60 mg/kg; in the data set “Acute toxicity, mice” (ip, for the base) it was 100 to 300 mg/kg; in “Acute toxicity, mice” (iv), 83 mg/kg. For the same compound, the inhibition at 30 µg/mL in the data set on thrombocyte aggregation [3] (Canis lupus familiaris, final concentration 3 × 10^-5 g/ml, read-out: Change of Ma in %) was 13%. Besides, in the data set with thrombocyte aggregation [3] (setting [8]), the inhibition at 100 µg/mL worked out at 20%. In the data set on thrombocyte aggregation [3] (Canis lupus familiaris, final concentration 10^-5 g/ml, read-out: Change of Ma in %), the inhibition at 10 µg/mL was determined as 11%. The figures for the “Ma, maximum amplitude” value in the data set with thrombocyte aggregation [3] (setting [10]), in the data set on thrombocyte aggregation [3] (final concentration 10^-4 g/ml) and with thrombocyte aggregation [3] (final concentration 10^-5 g/ml) were 523, 483 and 535, respectively. Moreover, the “Tr, time from start of rotation” value in the data set on thrombocyte aggregation [3] (setting [10]) is 4.3 min; with thrombocyte aggregation [3] (final concentration 10^-4 g/ml) it was 4.0 min; in the data set on thrombocyte aggregation [3] (final concentration 10^-5 g/ml), 4.6 min. Moreover, the “angle α between the tangent” value in the data set on thrombocyte aggregation [3] (setting [10]) was 86.6; in the data set on thrombocyte aggregation [3] (final concentration 10^-4 g/ml), 87.0; in the data set on thrombocyte aggregation [3] (final concentration 10^-5 g/ml), 86.5. For the same compound, the IC50 in data set [4] fell in the range of 1 to 10 ng/mL (≈ 2.9 to 29 nM).
With `CC1(C)CC(=O)N(CCCN2CCN(c3ccccc3)CC2)C(=S)N1` [compound 16], the 50% effective dose (ED50) in data set [2] (setting [6]) was 0.3 mg/kg; in data set [2] (setting [7]), 0.01 to 0.03 mg/kg; in data set [2] (setting [9]), approximately 0.3 mg/kg. Also, the inhibition at 100 µg/mL with thrombocyte aggregation [3] (setting [8]) is 42%. In the data set with thrombocyte aggregation [3] (final concentration 10^-4 g/ml), the “Ma, maximum amplitude” value came to 315. In addition, the “Tr, time from start of rotation” value in the data set on thrombocyte aggregation [3] (final concentration 10^-4 g/ml) stood at 1.8 min. Besides, in the data set with thrombocyte aggregation [3] (final concentration 10^-4 g/ml), the “angle α between the tangent” value is on record as 86.3. The LD50 at 168 h was 200 to 400 mg/kg in “Acute toxicity, mice” (ip) and 40 to 63 mg/kg in “Acute toxicity, mice” (iv). The IC50 in data set [4] fell in the range of 1 to 10 ng/mL (≈ 2.77 to 27.7 nM). In addition, the “Strength of activity (reduction in quantity of faeces)” value in the data set on 5-Hydroxy-L-tryptophan (10 mg/kg p.o.) and in the data set on 5-Hydroxy-L-tryptophan (20 mg/kg p.o.) was “+ (from 25 to 50%)” in each case.
Consider `CC[C@@H](CO)NC(=O)[C@@H]1C=C2c3cccc4c3c(cn4C)C[C@H]2N(C)C1` [methysergide], for which the serotonin antagonism result in the data set on serotonin is recorded as “serotonin-antagonistic activities”.
`CN1CCC(=C2c3ccccc3CCc3sccc32)CC1` [Pizotyline-HCl, reference compound]: the ED50 was 0.01 to 0.1 mg/kg in data set [2] (setting [6]), 0.01 to 0.05 mg/kg in data set [2] (setting [7]) and 0.5 to 1 mg/kg in data set [2] (setting [9]). Also, in [4], the IC50 lay in the range of 1 to 10 ng/mL. The figures for the LD50 with rats and with mice were 17 ± 1.1 mg/kg and 43 ± 1.8 mg/kg, respectively. The “Strength of activity (reduction in quantity of faeces)” value in the data set on 5-Hydroxy-L-tryptophan (20 mg/kg p.o.) was “+ (from 25 to 50%)”.
As to `CN1CCC(=C2c3ccccc3CCc3sccc32)CC1` [Pizotyline], the serotonin antagonism entry with serotonin was “serotonin-antagonistic activities”.
Take `CN(C)CCCOC1(Cc2ccccc2)CCCCCC1` [Bencyclane]: the serotonin antagonism entry in the data set with serotonin is “weak serotonin antagonism”. The “inhibition of thrombocyte aggregation” value with thrombocyte aggregation [5] was “inhibiting thrombocyte aggregation”.
